Tested on: T1, HpeCBA
T1 construct: gene hpeB; hpeCBA co-expressed in Rhodococcus jostii RHA1; untagged complex, ammonium sulfate and anion exchange; with Phosphophenylethanone carboxylase, biotin carboxylase; Phosphophenylethanone carboxylase, biotin carboxyl carrier protein
Assay: coupled spectrophotometric assay (pyruvate kinase / lactate dehydrogenase, NADH oxidation)
Assay type: biochemical, Rhodococcus rhodochrous
Settings: 20 mM MOPS (I = 0.1 M), pH 7.5, 25 °C; ATP, Mg2+, HCO3-
From the text: coupled spectrophotometric assay (pyruvate kinase / lactate dehydrogenase, NADH oxidation) on HpeCBA

| SMILES | Km [µM] |
| --- | --- |
| COc1cc(C(C)=O)ccc1OP(=O)(O)O [PAV] | 560 |
| CC(=O)c1ccc(OP(=O)(O)O)cc1 [PAP] | 69 |

From PMC9618137, “Bacterial catabolism of acetovanillone, a lignin-derived compound” (Proceedings of the National Academy of Sciences of the …, 2022)
